Test results as given in US20210330683A1, “COMPOSITIONS AND METHODS FOR ENHANCED DELIVERY OF ANTIVIRAL AGENTS” (POVIVA CORP., priority 2020, published 2021).

Assay: Plasma exposure (pharmacokinetics) of darunavir and efavirenz after oral administration of formulations
Conditions: for concentration at 1 h / concentration at 2 h: male, Sprague-Dawley, 10 mg/kg, average plasma concentration
Procedure: In this study, the exposure and distribution of darunavir and efavirenz were evaluated following oral administration in male Sprague-Dawley rats. Four cohorts of 10 rats each were used in this study. The first cohort involved darunavir using the disclosed formulations and the second cohort darunavir in a control formulation. The third cohort involved efavirenz using the disclosed formulations and the fourth cohort efavirenz in a control formulation.
Formulations were administered orally (PO) at 10 mg/kg of darunavir or efavirenz. Following dosing, blood, urine and fecal samples were collected up to 8-hour post dose (groups 1, 3, 5, and 7) or 24-hour post dose (groups 2, 4, 6, and 8). Brain tissue was collected at 8 hours or 24 hours, following the 8 hour or 24-hour urine and feces sample collection. Plasma, urine, feces, and brain tissue concentrations of the analytes were determined by LC-MS/MS. Plasma pharmacokinetic parameters were determined using WinNonlin (v8.0) software.
Plasma, urine, feces, and brain tissue samples were extracted and analyzed using the methods described as follows.
Analytical stock solutions (1.00 mg/mL of the free drug) were prepared in DMSO. Sample Homogenization Brain tissue and feces samples were homogenized with a Virsonic 100 ultrasonic homogenizer. Each brain tissue sample was first weighed, and then an appropriate volume of 20:80 methanol:water was added to make a 2 mL/gram sample. Samples were then homogenized on ice, and stored frozen until analysis. Feces samples were homogenized with 20:80 MeOH:water (8 mL/gram of tissue) prior to extraction. Standard Preparation (Plasma, Urine, and Brain) Standards were prepared in rat plasma containing sodium heparin as the anticoagulant, or in blank tissue homogenate. Working solutions were prepared in 50:50 acetonitrile:water. Working solutions were then added to blank matrix to make calibration standards to final concentrations of 1000, 500, 250, 100, 75.0, 50.0, 25.0, and 10 ng/mL. Standards were treated identically to the study samples. Sample Extraction (Plasma, Urine, Feces, and Brain) Plasma, urine, feces, and brain tissue samples were manually extracted via acetonitrile precipitation in a 96-well plate. Urine samples were diluted a minimum of 5-fold into blank rat plasma prior to extraction. Diluted urine samples were quantified against the rat plasma calibration curve. Brain and feces tissue homogenates were quantified against calibration curves prepared in matched blank tissue homogenate.

[1] = rat, in vivo, po, animals given the control formulation, rats
[2] = rat, plasma, po, animals given the control formulation, rats
[3] = rat, plasma, po, test animals (disclosed test formulation), rats

Row | SMILES | concentration at 1 h [1] | concentration at 2 h [1] | concentration at 2 h (rat, in vivo, po, test animals (disclosed test formulation), rats) | plasma concentration with disclosed compositions versus control formulations (oral, rats, disclosed formulation compared with control formulation) | concentration at 1 h [2] | concentration at 2 h [2] | concentration at 1 h [3] | concentration at 2 h [3] | plasma concentration with disclosed compositions versus control formulations (rat, in vivo, po)
1 | CC(C)CN(C[C@@H](O)[C@H](Cc1ccccc1)NC(=O)O[C@H]1CO[C@H]2OCC[C@H]21)S(=O)(=O)c1ccc(N)cc1 [darunavir] | ~185 ng/mL | ~63 ng/mL | ~153 ng/mL | double the plasma concentration |  |  |  |  | 
2 | O=C1Nc2ccc(Cl)cc2[C@@](C#CC2CC2)(C(F)(F)F)O1 [efavirenz] |  |  |  |  | ~139 ng/mL | ~117 ng/mL | ~133 ng/mL | ~142 ng/mL | higher levels than control formulations
